Where a name gives a salt, the structure may show the parent alone. Read-outs that look alike come from different tables or passages of the source.
What was measured:
[1] = target: PDE 7 (phosphodiesterase VII) (Homo sapiens (Human), UniProt Q13946); test: PDE 7 inhibiting effect (3H-cAMP hydrolysis, PDE 7 active fraction from MOLT-4 cells); format: biochemical; settings: PDE 7 fraction from MOLT-4 cells, 0.064 μM cAMP, 10 μM rolipram, 2 hours at 25° C., read-out: PDE7 IC50
Method: Methods for Evaluating the PDE 7 Inhibiting Effect
The PDE 7 (phosphodiesterase VII) inhibiting effect of the compounds of the present invention was performed by the following method, which was modified assay method described in Biochemical. Pharmacol. 48(6), 1219-1223 (1994). • (1) The active fraction of PDE 7 (phosphodiesterase VII) was obtained. That is, MOLT-4 (obtainable from ATCC as ATCC No. CRL-1582), which was cell line of human acute lymphoblastic lymphoma T cells, was incubated in RPMI1640 culture medium containing 10% fetal bovine serum to obtain 5×10^8 MOLT-4 cells. The cells were collected by centrifugation and suspended with 10 mL of buffer solution A [25 mM of tris-HCl, 5 mM of 2-mercaptoethanol, 2 mM of benzamidine, 2 mM of EDTA, 0.1 mM of 4-(2-aminoethyl)benzenesulfonyl hydrochloride; pH 7.5], then homogenized by Polytron® homogenizer. The homogenate were centrifuged under 25,000×G for 10 minutes at 4° C. The supernatant was separated and thus obtained supernatant was further centrifuged under 100,000×G for 60 minutes at 4° C., and then filtrated with 0.2 μm filter to obtain the soluble fraction. • (2) The obtained soluble fraction was filled in equilibrium HiTrap Q column (5 mL×2) with buffer solution A, and phosphodiesterase fractions were eluted by 300 mL of buffer solution A with linear gradient from 0 to 0.8 M NaCl concentration. 5 mL each of 60 eluents were collected, and each eluents were examined for cyclic AMP metabolic activities of phosphodiesterase. […] After the reaction, suspension of Sephadex®-QAE in 10 mM of HEPES-Na (pH 7.0) was added to the reaction mixture, and the mixture was left at rest for 5 minutes.

[2] = target: PDE 4 (phosphodiesterase IV); test: PDE 4 inhibiting effect (3H-cAMP hydrolysis, PDE 4 active fraction from Balb/c mouse liver); format: biochemical; settings: PDE 4 fraction from Balb/c mice liver, 0.064 μM cAMP, 2 hours at 25° C.; read-out: PDE4 IC50
Method: Methods for Evaluating the PDE 4 Inhibiting Effect
The PDE 4 (phosphodiesterase IV) inhibiting effect of the compounds of the present invention was performed by the following method, which was modified assay method described in Biochemical. […] That is, the livers obtained from three Balb/c mice (male, 12 weeks: obtainable from CLEA Japan, Inc.) were suspended with 30 mL of buffer solution B [20 mM of bis-tris, 5 mM of 2-mercaptoethanol, 2 mM of benzamidine, 2 mM of EDTA, 0.1 mM of 4-(2-aminoethyl)benzenesulfonyl hydrochloride, 50 mM of sodium acetate; pH 6.5], then homogenized by Polytron® homogenizer. The homogenate were centrifuged under 25,000×G for 10 minutes at 4° C. The supernatant was separated and thus obtained supernatant was further centrifuged under 100,000×G for 60 minutes at 4° C., and then filtrated with 0.2 μm filter to obtain the soluble fraction. • (2) The obtained soluble fraction was filled in equilibrium DEAE sepharose column (1×10 cm) with buffer solution B, and phosphodiesterase fractions were eluted by 120 mL of buffer solution B with linear gradient from 0.05 to 1M sodium acetate concentration. 5 mL each of 24 eluents were collected, and each eluents were examined for cyclic AMP metabolic activities of phosphodiesterase. […] After the reaction, suspension of Sephadex®-QAE in 10 mM of HEPES-Na (pH 7.0) was added to the reaction mixture, and the mixture was left at rest for 5 minutes.

Chain of PDE 7 (phosphodiesterase VII) (Q13946 whole entry): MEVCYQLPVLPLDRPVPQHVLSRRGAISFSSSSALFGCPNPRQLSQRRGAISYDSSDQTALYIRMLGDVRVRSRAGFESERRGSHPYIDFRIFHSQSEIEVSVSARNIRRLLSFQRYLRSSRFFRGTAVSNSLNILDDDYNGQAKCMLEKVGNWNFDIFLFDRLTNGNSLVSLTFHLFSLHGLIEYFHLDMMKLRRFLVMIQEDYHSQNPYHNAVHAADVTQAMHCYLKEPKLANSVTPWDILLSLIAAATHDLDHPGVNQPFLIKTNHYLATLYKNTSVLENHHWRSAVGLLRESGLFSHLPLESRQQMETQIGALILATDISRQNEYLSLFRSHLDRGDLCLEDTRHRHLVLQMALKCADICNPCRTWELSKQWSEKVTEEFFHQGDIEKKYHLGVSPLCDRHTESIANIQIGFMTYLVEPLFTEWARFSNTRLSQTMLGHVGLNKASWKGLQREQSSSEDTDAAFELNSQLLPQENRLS

Row | SMILES | IC50 [1] [nM] | IC50 [2] [nM] | other results
1 | Cc1nn(C2CCCCC2)c2sc(C(=O)N[C@H]3C[C@@H]3CO)cc12 (racemic) [Example 340, (±)-1-Cyclohexyl-N-[trans-2-(hydroxymethyl)cyclopropyl]-3-methyl-1H-thieno[2,3-c]pyrazole-5-carboxamide] | 54 | 28000 | –
2 | CCOC(=O)Nc1ccc(NC(=O)c2cc3c(C)nn(C4CCCCC4)c3s2)cc1 [Example 12, Ethyl 4-{[(1-cyclohexyl-3-methyl-1H-thieno[2,3-c]pyrazol-5-yl)-carbonyl]amino}phenylcarbamate] | 53 | 5000 | –
3 | Cc1nn(C2CCCCC2)c2sc(C(=O)Nc3ccc4c(c3)CCN4)cc12 [Example 14, 1-Cyclohexyl-N-(2,3-dihydro-1H-indol-5-yl)-3-methyl-1H-thieno[2,3-c]pyrazole-5-carboxamide HCl salt] | 88 | 3700 | –
4 | CCC(=O)N1CCc2cc(NC(=O)c3cc4c(C)nn(C5CCCCC5)c4s3)ccc21 [Example 21, 1-Cyclohexyl-3-methyl-N-(1-propionyl-2,3-dihydro-1H-indol-5-yl)-1H-thieno-[2,3-c]pyrazole-5-carboxamide] | 84 | 2500 | –
5 | Cc1nn(C2CCCCC2)c2sc(C(=O)Nc3ccc4c(c3)CCN4C(=O)C(C)C)cc12 [Example 23] | 83 | 4800 | –
6 | Cc1nn(C2CCCCC2)c2sc(C(=O)Nc3ccc4c(c3)CCN4C(=O)C(C)(C)C)cc12 [Example 25, 1-Cyclohexyl-N-[1-(2,2-dimethylpropanoyl)-2,3-dihydro-1H-indol-5-yl]-3-methyl-1H-thieno[2,3-c]pyrazole-5-carboxamide] | 98 | 6500 | –
7 | Cc1nn(C2CCCCC2)c2sc(C(=O)Nc3ccc(C(=O)N4CCN(C)CC4)cc3)cc12 [Example 32, 1-Cyclohexyl-3-methyl-N-{4-[(4-methyl-1-piperazinyl)carbonyl]-phenyl}-1H-thieno[2,3-c]pyrazole-5-carboxamide] | 95 | 2500 | –
8 | Cc1nn(C2CCCCC2)c2sc(C(=O)Nc3ccc(S(=O)(=O)N4CCN(CCO)CC4)cc3)cc12 [Example 79, 1-Cyclohexyl-N-(4-{[4-(2-hydroethyl)-1-piperazinyl]sulfonyl}-phenyl)-3-methyl-1H-thieno[2,3-c]pyrazole-5-carboxamide] | 60 | – | –
9 | Cc1nn(C2CCCCC2)c2sc(C(=O)N[C@H]3CCN(C(=O)N(C)C)C3)cc12 [Example 246, 1-Cyclohexyl-N-{(3S)-1-[(dimethylamino)carbonyl]pyrrolidinyl}-3-methyl-1H-thieno[2,3-c]pyrazole-5-carboxamide HCl salt] | 51 | – | –
10 | Cc1nn(C2CCCCC2)c2sc(C(=O)N[C@@H]3CCN(C(=O)N(C)C)C3)cc12 [Example 323, 1-Cyclohexyl-N-{(3R)-1-[(dimethylamino)carbonyl]pyrrolidinyl}-3-methyl-1H-thieno[2,3-c]pyrazole-5-carboxamide HCl salt] | 71 | – | –
11 | Cc1nn(C2CCCCC2)c2sc(C(=O)Nc3ccc(N4CCC(O)CC4)c(F)c3)cc12 [Example 365, 1-cyclohexyl-N-[3-fluoro-4-(4-hydroxy-1-piperidinyl)phenyl]-3-methyl-1H-thieno[2,3-c]pyrazole-5-carboxamide dimethanesulfonate] | – | – | IC50 ([1]; dimethanesulfonate): 41 nM
12 | Cc1nn(C2CCCCC2)c2sc(C(=O)Nc3ccc(N4CCC(O)CC4)c(F)c3)cc12 [Example 366, 1-Cyclohexyl-N-[3-fluoro-4-(4-hydroxy-1-piperidinyl)phenyl]-3-methyl-1H-thieno[2,3-c]pyrazole-5-carboxamide p-toluenesulfonate] | – | – | IC50 ([1]; p-toluenesulfonate): 49 nM
13 | Cc1nn(C2CCCCC2)c2sc(C(=O)Nc3ccc(N4CCC(O)CC4)cc3)cc12 [Example 367, 1-Cyclohexyl-N-[4-(4-hydroxy-1-piperidinyl)phenyl]-3-methyl-1H-thieno[2,3-c]pyrazole-5-carboxamide methanesulfonate] | – | – | IC50 ([1]; methanesulfonate): 20 nM
14 | Cc1nn(C2CCCCC2)c2sc(C(=O)Nc3ccc(N4CCC(O)CC4)cc3)cc12 [Example 368, 1-Cyclohexyl-N-[4-(4-hydroxy-1-piperidinyl)phenyl]-3-methyl-1H-thieno[2,3-c]pyrazole-5-carboxamide p-toluenesulfonate] | – | – | IC50 ([1]; p-toluenesulfonate): 26 nM

Now from value to compound, other results behind:

Row | IC50 [1] [nM] | IC50 [2] [nM] | SMILES | other results
15 | 27 | 1800 | COc1cc(NC(=O)c2cc3c(C)nn(C4CCCCC4)c3s2)ccc1NC(C)=O [Example 10, N-[4-(Acetylamino)-3-methoxyphenyl]-1-cyclohexyl-3-methyl-1H-thieno[2,3-c]pyrazole-5-carboxamide] | –
16 | 19 | 2000 | CC(=O)N1CCc2cc(NC(=O)c3cc4c(C)nn(C5CCCCC5)c4s3)ccc21 [Example 11, N-(1-Acetyl-2,3-dihydro-1H-indo-5-yl)-1-cyclohexyl-3-methyl-1H-thieno[2,3-c]pyrazole-5-carboxamide] | –
17 | 33 | > 30000 | CNC(=O)c1ccc(NC(=O)c2cc3c(C)nn(C4CCCCC4)c3s2)cc1 [Example 20] | –
18 | 44 | 3000 | Cc1nn(C2CCCCC2)c2sc(C(=O)Nc3ccc4c(c3)CC(=O)N4)cc12 [Example 26, 1-Cyclohexyl-3-methyl-N-(2-oxo-2,3-dihydro-1H-indol-5-yl)-1H-thieno[2,3-c]pyrazole-5-carboxamide] | –
19 | 50 | 30000 | CCNC(=O)c1ccc(NC(=O)c2cc3c(C)nn(C4CCCCC4)c3s2)cc1 [Example 28, 1-Cyclohexyl-N-{4-[(ethylamino)carbonyl]phenyl}-3-methyl-1H-thieno[2,3-c]pyrazole-5-carboxamide] | –
20 | 40 | 25000 | Cc1nn(C2CCCCC2)c2sc(C(=O)Nc3ccc(S(=O)(=O)N4CCN(C)CC4)cc3)cc12 [Example 36, 1-Cyclohexyl-3-methy-N-{4-[(4-methyl-1-piperazinyl)sulfonyl]-phenyl}-1H-thieno[2,3-c]pyrazole-5-carboxamide] | –
21 | 28 | 2000 | COCCNC(=O)c1ccc(NC(=O)c2cc3c(C)nn(C4CCCCC4)c3s2)cc1 [Example 37, 1-Cyclohexyl-N-(4-{[(2-methoxyethyl)amino]carbonyl}phenyl)-3-methyl-1H-thieno[2,3-c]pyrazole-5-carboxamide] | –
22 | 21 | – | Cc1nn(C2CCCCC2)c2sc(C(=O)Nc3ccc(N4CCC(O)CC4)cc3)cc12 [Example 114] | –
23 | 35 | – | Cc1nn(C2CCCCC2)c2sc(C(=O)Nc3ccc(N4CCC(O)CC4)c(F)c3)cc12 [Example 159, 1-Cyclohexyl-N-[3-fluoro-4-(4-hydroxy-1-piperidinyl)phenyl]-3-methyl-1H-thieno[2,3-c]pyrazole-5-carboxamide] | –
24 | 7.8 | – | CNC(=O)[C@H]1CC[C@H](NC(=O)c2cc3c(C)nn(C4CCCCC4)c3s2)CC1 [Example 237, 1-Cyclohexyl-3-methyl-N-{4-[(methylamino)carbonyl]cyclohexyl}-1H-thieno[2,3-c]pyrazole-5-carboxamide] | –
25 | 41 | – | Cc1nn(C2CCCCC2)c2sc(C(=O)NC3CCN(S(=O)(=O)N(C)C)CC3)cc12 [Example 240, 1-Cyclohexyl-N-{1-[(dimethylamino)sulfonyl]-4-piperidinyl}-3-methyl-1H-thieno[2,3-c]pyrazole-5-carboxamide] | –
26 | 43 | – | Cc1nn(C2CCCCC2)c2sc(C(=O)Nc3ccc(CN4CCOCC4)nc3)cc12 [Example 412, 1-Cyclohexyl-3-methyl-N-[6-(4-morpholinylmethyl)-3-pyridinyl]-1H-thieno[2,3-c]pyrazole-5-carboxamide methanesulfonate] | –

From patent US8901315B2, “Thienopyrazole derivative having PDE7 inhibitory activity” (Daiichi Sankyo Company, Limited, priority 2004, dated 2014)
